# Reference: patent publication US8852657B2, “Chromones as therapeutic agents” (Unigen, Inc., priority 2007, dated 2014)
# “Also recorded” adds a separate entry of the source.
# Key:
# Assay type in all cases: in vivo, mouse
# [1] = tested on: C57BL/6J mice fed high fat diet; test: Plasma insulin level (ELISA), high-fat diet induced model; details: day 14 of treatment after 8 weeks high-fat diet; P<0.05; GW1929 5 mg/kg, UP394 and UP396 100 mg/kg
# Excerpt: A high-fat diet induced animal model was developed and used for evaluation of potential therapeutic effects of chromone extracts. The C57BL/6J is a clinically relevant animal model that can be used in studies on metabolic disorders, pathophysiology of impaired glucose tolerance and for development of novel therapeutic agents (Ahren et al. (2004) Diabetes 53 (Supplement 3):S215-S219; Laakso et al. (2004) Diabetes Care 27:2253-2259; Kahn et al. (2004) Diabetes 53:3274-3285; Scheurink et al. (1998) European J Endo. 139:461-467; Yuan et al. (2002) Diabetes 51:1851-1858; Reitman et al. (2005) Endocrinology 145:3258-3264; Vlassara et al. (2005) Diabetes 54:2314-2319; Cawthome et al. (2002) Molecular and Cellular Proteomics 1:509-516). Methodology of model induction was first explained by Surwit et al. in 1988 (Diabetes, 37:1163-1167). In brief, impaired glucose tolerance and metabolic disorder like symptoms were inflicted successfully in C57BL/6J mice when fed with high fat diets for 8 weeks. Male C57BL/6J mice were purchased from Jackson Laboratories (Bar Harbor, Me.) at age of 6 weeks. One week after acclimation period, animals were divided into groups (n=5 or 6) and provided with high fat (45% kcal) rodent pellet (Research diets, Inc., New Brunswick, N.J.) and water ad libitum for 12 weeks except at times of glucose and insulin tolerance tests at which feed was withheld for three hours. Animals were maintained in a temperature controlled room (22.2° C.) on a 12 hour light-dark cycle. Blood glucose, cholesterol, and triglyceride were monitored every week for 12 weeks as described previously. Body weight measurement was taken once a week for 12 weeks.
# Once induction of the metabolic disorders was confirmed by weekly monitoring of selected parameters (glucose, triglyceride and cholesterol) i.e. on the 8th week, daily intraperitoneal treatment was initiated and maintained for 4 weeks. […]
# The plasma insulin levels were measured with an ELISA kit for insulin (Crystal Chem—Chicago, Ill.). […]
# [2] = tested on: C57BL/6J mice fed high fat diet; test: Intraperitoneal glucose tolerance test, high-fat diet induced model (UP394/UP396); details: day 18; times 60, 90 and 120 minutes; p<0.05; GW1929 5 mg/kg, UP396 100 mg/kg intraperitoneally
# Excerpt: A high-fat diet induced animal model was developed and used for evaluation of potential therapeutic effects of chromone extracts. The C57BL/6J is a clinically relevant animal model that can be used in studies on metabolic disorders, pathophysiology of impaired glucose tolerance and for development of novel therapeutic agents (Ahren et al. (2004) Diabetes 53 (Supplement 3):S215-S219; Laakso et al. (2004) Diabetes Care 27:2253-2259; Kahn et al. (2004) Diabetes 53:3274-3285; Scheurink et al. (1998) European J Endo. 139:461-467; Yuan et al. (2002) Diabetes 51:1851-1858; Reitman et al. (2005) Endocrinology 145:3258-3264; Vlassara et al. (2005) Diabetes 54:2314-2319; Cawthome et al. (2002) Molecular and Cellular Proteomics 1:509-516). Methodology of model induction was first explained by Surwit et al. in 1988 (Diabetes, 37:1163-1167). […] Blood glucose, cholesterol, and triglyceride were monitored every week for 12 weeks as described previously. […]
# An intraperitoneal glucose tolerance test was conducted using the C57BL/6J mice as described in Example 12 at a dose of 2 g/kg on day 18 of treatment with intraperitoneal administration of GW1929 (5 mg/kg), UP394 (100 mg/kg), UP396 (100 mg/kg) and vehicle. […] Blood glucose levels were measured at time 0, 30, 60, 90, and 120 minutes. […]
# [3] = tested on: high fat diet induced C57BL/6J mice; test: Intraperitoneal insulin tolerance test, UP780 dose-range study; details: after 10 weeks of daily oral treatment; P≦0.05
# Procedure: Once an induction of the disease on animals after 8 weeks of high fat diets was confirmed by monitoring of selected parameters, daily oral treatment was initiated. On each day, the test articles and the positive control GW1929 (Tocris Bioscience, Ellisville, Mo., Batch #2A/58705) were dissolved in 0.5% methylcellulose (Sigma, St. Louise Mo., Lot#116H0857) and delivered at an oral dose of 100, 200 and 400 mg/kg of UP780 (Lot # L1806QMAW-01); 400 mg/kg of Qmatrix® Aloe vera gel powder (QM400, Lot# G6319103-L3) as well as 5 mg/kg of GW1929. As GW1929 was not completely solublized in methylcellulose, it was first dissolved in DMSO (Sigma, St. Louis, Mo., Batch#064K0067). The final concentration of test compounds, including the vehicle, was then adjusted to contain 5% DMSO before drug administration. The carrier vehicle treated animals received 0.5% methylcellulose only. No detectable sign of irritation was observed after each drug or vehicle administration. […]
# An intraperitoneal glucose tolerance test was conducted on day 0 (baseline), weeks 3, and 9 after onset of treatment. […] Blood glucose levels were determined at time 0 (before glucose injection), 30, 60, 90, and 120 minutes post glucose delivery. […] Blood glucose levels were determined at time 0 (before insulin injection), 30, 60, 90, and 120 minutes after insulin administration. […]
# [4] = tested on: db/db mice; test: Weekly fasting triglyceride levels in db/db mice; details: after 10 weeks of treatment, P<0.05
# Procedure: Weekly fasting triglyceride levels of male db/db mice treated with GW1929 (5 mg/kg), N-931 (375 mg/kg) and vehicle were taken for 10 weeks. Animals were provided with T2018 rodent diet ad libitum except when fasting. Animals were fasted overnight before measurements were taken. The values indicated are percent triglyceride levels of vehicle, n=8.
structure (smiles),measurement,setting,value
"CN(CCOc1ccc(C[C@H](Nc2ccccc2C(=O)c2ccccc2)C(=O)O)cc1)c1ccccn1 [GW1929, N-(2-Benzoylphenyl)-O-[2-(methyl-2-pyridinylamino)ethyl]-L-tyrosine]",plasma insulin levels compared to vehicle,[1],decreased the insulin level significantly; also recorded: Significant decreases in plasma insulin levels
same,glucose utilization in intraperitoneal glucose tolerance test compared to vehicle,[2],Significant glucose utilization
same,significant differences in intraperitoneal insulin tolerance test vs vehicle,[3],after 1 hour insulin injection
same,fasting triglyceride levels compared to vehicle,[4],significant reduction in triglyceride levels
same,reduction of triglycerides,"[4]; N931 375 mg/kg, GW1929 5 mg/kg",43%
